From patent US20190336496A1, “SELECTIVE BCL-2 INHIBITORS IN COMBINATION WITH AN ANTI-PD-1 OR AN ANTI-PD-L1 ANTIBODY FOR THE TREATMENT OF CANCERS” (AbbVie Inc., priority 2018, published 2019)

Tests used:
[1] = system: CD4 T-cells co-cultured with MoDCs; assay: Mixed lymphocyte reaction (MLR) assay; type: cell-based, human; conditions: for CD3+ T cell numbers / production of IFNγ (secreted) / proportion of CD3+ T-cells that produce IFNγ: MLR, BCL-2 inhibitors at 1 μM
Experimental: Mixed Lymphocyte Reaction (MLR) assay was used to examine venetoclax effect on T-cell function in response to immune stimulation. Monocytic-derived dendritic cells (MoDCs) were generated from fresh human blood. PBMCs were isolated using a Ficoll gradient. The PBMCs were allowed to adhere for 2 hours. After 2 hours, cells in suspension were removed. Fresh AIM V™ medium (ThermoFisher cat. #12055091) supplemented with granulocyte-macrophage colony-stimulating factor (GM-CSF, 80 ng/mL) and IL-4 (50 ng/mL) was added to the culture. After 5 days, the MoDCs were stimulated with IL-1α and TNF-α (0.2 ng/mL each) for 48 hours to increase major histocompatibility complex class II molecules (MHCII) expression. These activated MoDCs were then co-cultured with CD4 T-cells (Biospecialty Corp.) at a ratio of 10:1 (T-cells:MoDCs) in a mixed lymphocyte reaction (MLR). The cells were treated with control IgG (Isotype) or anti-PD-1 antibody (nivolumab or ABBV-181 along with either dimethyl sulfoxide (DMSO) or BCL-2 inhibitors venetoclax (Compound (I)) or Compounds (II) or (III). Antibodies were added at 10 μg/mL and the compound concentrations of venetoclax were as indicated in FIG. 11. The MLR was cultured for 5 days, after which the cells were analyzed by flow cytometry using an LSRFortessa™ X-20 instrument (BD Biosciences) to determine cell number and functional cytokine (IFNγ) responses.

EMT6 tumors = assay: EMT6 mouse mammary carcinoma syngeneic model; type: in vivo; conditions: for complete responses (CR): EMT6, groups of 10 mice
Experimental: All experiments were conducted in compliance with the National Institutes of Health Guide for Care and Use of Laboratory Animals guidelines in a facility accredited by the Association for the Assessment and Accreditation of Laboratory Animal Care (AAALAC). BALB/c, C57BL/6, CB6F1 (C57BL/6 bred with BALB/c) and SCID mice were obtained from Charles River (Wilmington, Mass.). SCID mice have severe combined immune deficiency (SCID) and are characterized by an absence of functional T- and B-cells.
EMT6, mouse mammary carcinoma and CT26, mouse colon carcinoma, cell lines were obtained from ATCC (Manassas, Va.). MC38, mouse colon carcinoma cell line was obtained from National Cancer Institute (NCI).
Compound (I),venetoclax, was formulated in 10% ethanol+30% PEG 400+60% Phosal® 50PG. Venetoclax was administered orally once a day for 14 days at 50 mg/kg/day.
1×10^5 CT26, EMT6 or MC38 cells were subcutaneously injected with Matrigel into the flanks of BALB/c, CB6F1 or C57BL/6 mice, respectively. Seven days later, mice were randomized to treatment groups of vehicle, venetoclax, anti-PD-1/PD-L1 or the combination of venetoclax and anti-PD-1/PD-L1. Tumor volume was determined via measurements of the length (L) and width (W) of the tumor with electronic calipers and the volume was calculated according to the following equation: V=L×W2/2 using Study Director Version 2.1.11 (Studylog Systems Inc., South San Francisco). Complete response (CR) was defined as reduction in tumor volume to ≤25 mm^3 over at least 3 successive measurements.

Row | Compound | CD3+ T cell numbers [1] | production of IFNγ (secreted) [1] | proportion of CD3+ T-cells that produce IFNγ [1] | also measured
1 | Cn1ccc2cc(N(C(=O)c3cc(-c4cc5c(cc4C(=O)N4Cc6ccccc6C[C@H]4CN4CCOCC4)OCO5)n4c3CCCC4)c3ccc(O)cc3)ccc21 [Compound (II)] | declined comparably | not antagonized | increase | –
2 | O=C(c1cc(-c2cc3c(cc2C(=O)N2Cc4ccccc4C[C@H]2CN2CCOCC2)OCO3)n2c1CCCC2)N(c1ccccc1)c1ccc(O)cc1 [Compound (III)] | declined comparably | not antagonized | increase | –
3 | anti hu PD-L1 YW243.55.S70 [mu IgG2 a/k]: mouse anti-PD-L1 antibody, heavy chain SEQ ID NO: 5, light chain SEQ ID NO: 6 | – | – | – | complete responses (CR) (EMT6 tumors): 3; complete responses (CR) (EMT6 tumors; listed as anti-PD-L1 antibody): 3/10; tumor growth inhibition (TGI) (EMT6 tumors; EMT6 in CB6F1 mice, venetoclax 50 mg/kg/day orally 14 days, antibody 10 mg/kg IP every 4 days, 3 times, day 25): 89%
4 | nivolumab: anti-PD-1 antibody, heavy chain SEQ ID NO: 9, light chain SEQ ID NO: 10 | – | – | – | proportion of CD4+ T-cells that produce IFNγ ([1]; MLR 5 days, with isotype control or anti-PD-1 antibody): increased; number of CD4+ T-cells ([1]; MLR cultured 5 days, antibodies at 10 μg/mL): increased
